Results reported in patent US20060148030A1, “Nuclear receptor err y 3” (FUJISAWA PHARMACEUTICAL CO., LTD, priority 2002, published 2006).

Legend:
[1] = biological target: T1, ERRγ1 (Homo sapiens, UniProt P62508); conditions: stated as known property; cited from earlier work
T1 sequence (P62508 1-435 isoform P62508-2): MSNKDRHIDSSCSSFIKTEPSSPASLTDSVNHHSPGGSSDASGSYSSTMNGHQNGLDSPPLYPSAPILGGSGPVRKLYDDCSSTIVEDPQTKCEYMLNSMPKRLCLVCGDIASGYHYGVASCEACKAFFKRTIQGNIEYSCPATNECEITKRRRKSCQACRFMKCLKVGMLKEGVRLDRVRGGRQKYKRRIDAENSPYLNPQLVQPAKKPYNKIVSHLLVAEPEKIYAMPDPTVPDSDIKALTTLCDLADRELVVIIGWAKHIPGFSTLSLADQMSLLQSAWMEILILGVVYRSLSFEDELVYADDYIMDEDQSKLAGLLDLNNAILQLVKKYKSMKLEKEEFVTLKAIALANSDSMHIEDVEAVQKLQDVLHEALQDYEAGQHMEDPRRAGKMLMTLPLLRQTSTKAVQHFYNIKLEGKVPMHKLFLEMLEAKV

[2] = tested on: ERRγ2; conditions: stated as known property; cited from earlier work
[3] = biological target: T2, PPARβ (Homo sapiens, UniProt Q03181); test: Reporter gene assay, ERRγ3 coexisted with PPARβ, pGVP2-PPRE1 in CV-1 cells; type: cell-based; conditions: 10^−5 M carbacyclin, FIG. 24
T2 construct: expressed in transfected cells; host or cells: CV-1 (African green monkey kidney)
T2 sequence (Q03181 1-441): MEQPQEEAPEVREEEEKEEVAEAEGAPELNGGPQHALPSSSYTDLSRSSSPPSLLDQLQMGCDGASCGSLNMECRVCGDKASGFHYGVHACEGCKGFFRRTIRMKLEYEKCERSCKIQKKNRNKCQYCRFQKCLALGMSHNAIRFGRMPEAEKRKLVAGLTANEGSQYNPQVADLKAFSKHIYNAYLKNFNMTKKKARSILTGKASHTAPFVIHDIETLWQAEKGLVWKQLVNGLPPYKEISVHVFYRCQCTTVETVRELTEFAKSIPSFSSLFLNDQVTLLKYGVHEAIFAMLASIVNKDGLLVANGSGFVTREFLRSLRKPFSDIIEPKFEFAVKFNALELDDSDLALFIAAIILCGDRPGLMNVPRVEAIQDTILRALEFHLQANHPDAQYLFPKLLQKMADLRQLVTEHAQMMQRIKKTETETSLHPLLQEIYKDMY
T2 sequence (P19793 1-462 partner): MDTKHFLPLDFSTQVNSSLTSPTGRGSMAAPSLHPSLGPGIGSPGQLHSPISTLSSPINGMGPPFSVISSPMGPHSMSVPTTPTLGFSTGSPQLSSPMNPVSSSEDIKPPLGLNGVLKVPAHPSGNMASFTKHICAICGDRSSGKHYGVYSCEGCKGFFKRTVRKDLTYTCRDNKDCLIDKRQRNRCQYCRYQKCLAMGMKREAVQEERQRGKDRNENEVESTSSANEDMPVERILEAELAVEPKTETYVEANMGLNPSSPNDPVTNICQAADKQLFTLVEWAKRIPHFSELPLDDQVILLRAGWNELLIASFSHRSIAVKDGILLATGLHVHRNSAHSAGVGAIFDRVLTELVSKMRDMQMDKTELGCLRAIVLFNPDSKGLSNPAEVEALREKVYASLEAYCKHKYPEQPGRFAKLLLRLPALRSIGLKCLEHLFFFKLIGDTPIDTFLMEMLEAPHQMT
Method: Transfection was performed as follows: CV-1 cells were resuspended in DMEM supplemented with 10% fetal bovine serum, 2000 U/l of penicillin G, and 100 mg/l of streptomycin to a concentration of 2×10^5 cells/2.5 ml. This was then seeded to a 6-well plate at 2.5 ml per well, and incubated for 18-24 hours in a CO2 incubator at 37° C. and 5% CO2. 1 μg of each of the expression plasmids for the transcription factors, the luciferase reporter plasmid, and another luciferase reporter plasmid used for normalization of the measured values (pRL-TK), were dissolved in Opti-MEM (Gibco BRL), to a total of 150 μl. […] Luciferase activity was measured using the Dual-Luciferase™ Reporter Assay System (Promega). […] The protocol for measurement was as follows: 50 μl of Luciferase Assay Reagent II was added to each well, stirred for 0.3 seconds, and measured for one second. 50 μl of Stop&Glo™ Reagent was then added, stirred for 0.3 seconds, and measured for one second. The measured values for firefly luciferase activity were corrected by dividing by the value for the Renilla luciferase activity, the internal control. Average values and standard errors were calculated from triplicate samples.
The effect of ligands on the function of ERRγ3 in enhancing the transcriptional activation function of peroxisome proliferator activated receptor (PPAR) α, β, or γ was evaluated using the reporter gene assay (FIG. 24). […]

Sequence of ERRγ2 (P62508 whole entry): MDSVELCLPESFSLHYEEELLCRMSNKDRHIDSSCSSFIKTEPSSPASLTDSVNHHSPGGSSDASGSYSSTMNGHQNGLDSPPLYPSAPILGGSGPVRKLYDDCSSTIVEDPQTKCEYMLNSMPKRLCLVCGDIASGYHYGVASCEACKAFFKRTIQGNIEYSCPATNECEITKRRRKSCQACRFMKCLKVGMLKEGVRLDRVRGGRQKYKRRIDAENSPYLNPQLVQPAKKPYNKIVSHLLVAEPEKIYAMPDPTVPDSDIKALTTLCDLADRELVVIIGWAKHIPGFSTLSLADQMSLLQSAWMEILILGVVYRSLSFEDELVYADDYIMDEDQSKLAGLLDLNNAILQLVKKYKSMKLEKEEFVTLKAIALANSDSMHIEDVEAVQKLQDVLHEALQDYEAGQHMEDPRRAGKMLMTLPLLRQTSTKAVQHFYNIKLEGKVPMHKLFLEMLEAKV

## 4-hydroxytamoxifen [reference compound]
[1]
  inhibition of the transcriptional activation function of ERRγ1: inhibiting their transcriptional activation function
[2]
  binding to ERRγ2: capable of binding

B1: ERRγ3: novel ERRγ isoform, nuclear receptor protein of 396 amino acids (SEQ ID NO: 2) lacking part of the DNA binding domain (protein, listed as Homo sapiens)
chain: MSNKDRHIDSSCSSFIKTEPSSPASLTDSVNHHSPGGSSDASGSYSSTMNGHQNGLDSPPLYPSAPILGGSGPVRKLYDDCSSTIVEDPQTKCEYMLNSMPKRLCLVCGDIASGYHYGVASCEACKAFFKRTIQGVRLDRVRGGRQKYKRRIDAENSPYLNPQLAQPAKKPYNKIVSHLLVAEPEKIYAMPDPTVPDSDIKALTTLCDLADRELVVIIGWAKHIPGFSTLSLADQMSLLQSAWMEILILGVVYRSLSFEDELVYADDYIMDEDQSKLAGLLDLNNAILQLVKKYKSMKLEKEEFVTLKAIALANSDSMHIEDVEAVQKLQDVLHEALQDYEAGQHMEDPRRAGKMLMTLPLLRQTSTKAVQHFYNIKLEGKVPMHKLFLEMLEAKV
[3]
  modifying effect on the transcriptional stimulation activity of PPARβ: did not show any significant modifying effect
